Experimental data from ChEMBL document CHEMBL4800723, “Data for DCP probe BI-1942” (2021).

What was measured:
[1] = biological target: 5-hydroxytryptamine receptor 1D (Homo sapiens, UniProt P28221); test: GPCRScan assay: inhibition of 5-HT1D; parameters: radioligand conc. used [nm] 1.0 – 2.0, parental cells HEKT
[2] = biological target: 5-hydroxytryptamine receptor 1A (Homo sapiens) (UniProt P08908); test: 5HT1A/H Eurofins SafetyScreen44 (BI); settings: Compound concentration 10.0 uM
[3] = biological target: Angiotensin-converting enzyme (Homo sapiens) (UniProt P12821); test: ACE(HU) Eurofins SafetyScreen44 (BI); settings: Compound concentration 10.0 uM
[4] = biological target: Angiotensin-converting enzyme (Homo sapiens) (UniProt P12821); test: ACE(HU_AMTCH400) Eurofins SafetyScreen44 (BI); settings: Compound concentration 10.0 uM
[5] = biological target: Angiotensin-converting enzyme 2 (Homo sapiens) (UniProt Q9BYF1); test: ACE-2(HU) Eurofins SafetyScreen44 (BI); settings: Compound concentration 10.0 uM
[6] = biological target: Alpha-2A adrenergic receptor (Homo sapiens) (UniProt P08913); test: ALPHA2A/HU Eurofins SafetyScreen44 (BI); settings: Compound concentration 10.0 uM
[7] = biological target: GABA-A receptor; anion channel (Rattus norvegicus) (UniProt O09028+P15431+P18506+P18508+P19969+P20236+P23574+P23576+P28471+P28473+P30191+P62813+P63079+P63138+Q91ZM7+Q9ES14); test: BZD/CENTR/R Eurofins SafetyScreen44 (BI); assay type: protein-complex assay; settings: Compound concentration 10.0 uM
Caspase-7 (Homo sapiens) = Caspase-7 (Homo sapiens) (UniProt P55210); test: CASPASE-7(H) Eurofins SafetyScreen44 (BI); settings: Compound concentration 10.0 uM
[8] = biological target: Cathepsin G (Homo sapiens) (UniProt P08311); test: CATHEPSG(H) Eurofins SafetyScreen44 (BI); settings: Compound concentration 10.0 uM
[9] = biological target: Cathepsin D (Homo sapiens) (UniProt P07339); test: CATHEPSIND Eurofins SafetyScreen44 (BI); settings: Compound concentration 10.0 uM
[10] = biological target: Cathepsin E (Homo sapiens) (UniProt P14091); test: CATHEPSINE Eurofins SafetyScreen44 (BI); settings: Mus musculus; Compound concentration 10.0 uM
[11] = biological target: Cathepsin Z (Homo sapiens) (UniProt Q9UBR2); test: CATHEPSINX(H) Eurofins SafetyScreen44 (BI); settings: Compound concentration 10.0 uM
[12] = biological target: Cholecystokinin receptor type A (Homo sapiens) (UniProt P32238); test: CCKA/H Eurofins SafetyScreen44 (BI); settings: Compound concentration 10.0 uM
[13] = biological target: Delta-type opioid receptor (Homo sapiens) (UniProt P41143); test: DELTA2/H Eurofins SafetyScreen44 (BI); settings: Compound concentration 10.0 uM
[14] = biological target: Neutrophil elastase (Homo sapiens) (UniProt P08246); test: ELASTASE(H) Eurofins SafetyScreen44 (BI); settings: Compound concentration 10.0 uM
[15] = biological target: Glucocorticoid receptor (Homo sapiens) (UniProt P04150); test: GCORTICOID/H Eurofins SafetyScreen44 (BI); settings: Compound concentration 10.0 uM
[16] = biological target: Histamine H2 receptor (Homo sapiens) (UniProt P25021); test: H2/APT/HS Eurofins SafetyScreen44 (BI); settings: filed as antagonist, Compound concentration 10.0 uM
hERG (KCNH2) = hERG (KCNH2) (Homo sapiens, UniProt Q12809); test: HERG_DOFETILIDE Eurofins SafetyScreen44 (BI); parameters: mode of action inhibitor; settings: probe [3H] Dofetilide, compound concentration 10 uM, read-out: % Ctrl
[17] = biological target: Human immunodeficiency virus type 1 protease (Human immunodeficiency virus 1) (UniProt Q72874); test: HIV-1/H Eurofins SafetyScreen44 (BI); settings: Compound concentration 10.0 uM
[18] = biological target: Muscarinic acetylcholine receptor M1 (Homo sapiens) (UniProt P11229); test: M1/H Eurofins SafetyScreen44 (BI); settings: Compound concentration 10.0 uM
[19] = biological target: Muscarinic acetylcholine receptor M3 (Homo sapiens) (UniProt P20309); test: M3/H Eurofins SafetyScreen44 (BI); settings: Compound concentration 10.0 uM
[20] = biological target: MAO-A (amine oxidase [flavin-containing] A) (Rattus norvegicus, UniProt P21396); test: MAO-A_ANTAG Eurofins SafetyScreen44 (BI); parameters: mode of action antagonist; scale not given: the % may be the effect or the level left; settings: compound concentration 10 uM, read-out: % Ctrl
[21] = biological target: Collagenase 3 (Homo sapiens) (UniProt P45452); test: MMP-13 (H) Eurofins SafetyScreen44 (BI); settings: Compound concentration 10.0 uM
[22] = biological target: 72 kDa type IV collagenase (Homo sapiens) (UniProt P08253); test: MMP-2 (H) Eurofins SafetyScreen44 (BI); settings: Compound concentration 10.0 uM
[23] = biological target: Matrix metalloproteinase-9 (Homo sapiens) (UniProt P14780); test: MMP-9 (H) Eurofins SafetyScreen44 (BI); settings: Compound concentration 10.0 uM
[24] = biological target: Interstitial collagenase (Homo sapiens) (UniProt P03956); test: MMP1 (H) Eurofins SafetyScreen44 (BI); settings: Compound concentration 10.0 uM
[25] = biological target: Matrix metalloproteinase-14 (Homo sapiens) (UniProt P50281); test: MT1-MMP(H)(MMP-14) Eurofins SafetyScreen44 (BI); settings: Compound concentration 10.0 uM
Rattus norvegicus [26] = species on record: Rattus norvegicus; test: NA+/SITE2/R Eurofins SafetyScreen44 (BI); settings: Compound concentration 10.0 uM
[27] = biological target: Proteinase-activated receptor 1 (Homo sapiens) (UniProt P25116); test: PAR1(H)AGON Eurofins SafetyScreen44 (BI); settings: filed as agonist, Compound concentration 10.0 uM
[28] = biological target: 5-hydroxytryptamine receptor 1B (Homo sapiens) (UniProt P28222); settings: Compound concentration 10.0 uM
[29] = biological target: 5-hydroxytryptamine receptor 2A (Homo sapiens) (UniProt P28223); settings: Compound concentration 10.0 uM
[30] = biological target: 5-hydroxytryptamine receptor 2C (Homo sapiens) (UniProt P28335); settings: Compound concentration 10.0 uM
[31] = biological target: D(1A) dopamine receptor (Homo sapiens) (UniProt P21728); settings: Compound concentration 10.0 uM
[32] = biological target: D(1B) dopamine receptor (Homo sapiens) (UniProt P21918); settings: Compound concentration 10.0 uM
[33] = biological target: Mu-type opioid receptor (Homo sapiens) (UniProt P35372); settings: Compound concentration 10.0 uM
[34] = biological target: Histamine H2 receptor (Homo sapiens) (UniProt P25021); settings: Compound concentration 10.0 uM
[35] = biological target: Alpha-1B adrenergic receptor (Homo sapiens) (UniProt P35368); settings: Compound concentration 10.0 uM
[36] = biological target: Alpha-2A adrenergic receptor (Homo sapiens) (UniProt P08913); settings: Compound concentration 10.0 uM
[37] = biological target: Alpha-2B adrenergic receptor (Homo sapiens) (UniProt P18089); settings: Compound concentration 10.0 uM
[38] = biological target: Alpha-2C adrenergic receptor (Homo sapiens) (UniProt P18825); settings: Compound concentration 10.0 uM
[39] = biological target: Muscarinic acetylcholine receptor M3 (Homo sapiens) (UniProt P20309); settings: Compound concentration 10.0 uM
[40] = biological target: Muscarinic acetylcholine receptor M4 (Homo sapiens) (UniProt P08173); settings: Compound concentration 10.0 uM
[41] = biological target: Beta-3 adrenergic receptor (Homo sapiens) (UniProt P13945); settings: Compound concentration 10.0 uM
Rattus norvegicus [42] = species on record: Rattus norvegicus; settings: Compound concentration 10.0 uM
Chymase (Homo sapiens) = Chymase (Homo sapiens) (UniProt P23946); settings: Compound concentration 10.0 uM

Histamine H2 receptor (Homo sapiens), sequence (P25021 whole entry): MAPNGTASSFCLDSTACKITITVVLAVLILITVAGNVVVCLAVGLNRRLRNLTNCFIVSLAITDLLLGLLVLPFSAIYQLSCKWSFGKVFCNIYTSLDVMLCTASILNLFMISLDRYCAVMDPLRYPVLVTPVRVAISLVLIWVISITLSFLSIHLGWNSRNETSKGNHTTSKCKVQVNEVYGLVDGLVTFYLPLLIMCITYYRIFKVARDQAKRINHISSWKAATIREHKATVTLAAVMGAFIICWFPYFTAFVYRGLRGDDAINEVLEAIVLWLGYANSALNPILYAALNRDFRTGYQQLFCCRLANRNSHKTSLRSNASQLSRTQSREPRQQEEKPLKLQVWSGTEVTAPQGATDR
Angiotensin-converting enzyme (Homo sapiens), sequence (P12821 whole entry): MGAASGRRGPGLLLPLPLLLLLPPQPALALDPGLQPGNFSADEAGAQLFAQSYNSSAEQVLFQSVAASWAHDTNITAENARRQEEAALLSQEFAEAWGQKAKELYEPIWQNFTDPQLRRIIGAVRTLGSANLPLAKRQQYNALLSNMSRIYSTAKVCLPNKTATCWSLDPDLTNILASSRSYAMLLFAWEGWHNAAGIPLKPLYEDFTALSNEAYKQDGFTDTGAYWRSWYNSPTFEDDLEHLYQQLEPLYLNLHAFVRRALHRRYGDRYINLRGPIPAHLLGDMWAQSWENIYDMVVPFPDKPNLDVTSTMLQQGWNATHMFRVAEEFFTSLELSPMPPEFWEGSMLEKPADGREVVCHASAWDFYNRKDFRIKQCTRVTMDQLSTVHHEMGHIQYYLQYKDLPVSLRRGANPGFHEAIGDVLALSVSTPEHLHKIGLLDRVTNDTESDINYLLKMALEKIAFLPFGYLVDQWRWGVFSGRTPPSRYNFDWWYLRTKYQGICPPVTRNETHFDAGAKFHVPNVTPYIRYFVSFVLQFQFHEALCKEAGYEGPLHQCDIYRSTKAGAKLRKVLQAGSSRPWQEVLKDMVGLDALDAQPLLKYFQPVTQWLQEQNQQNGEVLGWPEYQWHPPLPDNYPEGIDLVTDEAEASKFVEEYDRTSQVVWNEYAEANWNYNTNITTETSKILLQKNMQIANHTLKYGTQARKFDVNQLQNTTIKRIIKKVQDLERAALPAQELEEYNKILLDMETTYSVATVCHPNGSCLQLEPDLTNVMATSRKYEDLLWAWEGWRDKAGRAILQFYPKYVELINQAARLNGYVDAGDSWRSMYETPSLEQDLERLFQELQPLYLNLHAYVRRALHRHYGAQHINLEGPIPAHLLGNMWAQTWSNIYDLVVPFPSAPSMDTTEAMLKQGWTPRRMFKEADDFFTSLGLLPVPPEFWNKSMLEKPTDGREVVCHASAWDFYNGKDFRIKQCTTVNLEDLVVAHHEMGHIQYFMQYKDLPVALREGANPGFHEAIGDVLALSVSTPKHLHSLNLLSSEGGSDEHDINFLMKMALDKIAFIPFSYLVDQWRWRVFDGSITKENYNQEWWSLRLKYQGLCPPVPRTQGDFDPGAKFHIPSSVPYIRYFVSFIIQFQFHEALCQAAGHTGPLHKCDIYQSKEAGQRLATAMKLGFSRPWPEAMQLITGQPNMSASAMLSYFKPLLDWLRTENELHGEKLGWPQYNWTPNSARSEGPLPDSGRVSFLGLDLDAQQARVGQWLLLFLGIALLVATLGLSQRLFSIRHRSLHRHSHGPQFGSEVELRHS
Muscarinic acetylcholine receptor M3 (Homo sapiens), sequence (P20309 whole entry, looked up): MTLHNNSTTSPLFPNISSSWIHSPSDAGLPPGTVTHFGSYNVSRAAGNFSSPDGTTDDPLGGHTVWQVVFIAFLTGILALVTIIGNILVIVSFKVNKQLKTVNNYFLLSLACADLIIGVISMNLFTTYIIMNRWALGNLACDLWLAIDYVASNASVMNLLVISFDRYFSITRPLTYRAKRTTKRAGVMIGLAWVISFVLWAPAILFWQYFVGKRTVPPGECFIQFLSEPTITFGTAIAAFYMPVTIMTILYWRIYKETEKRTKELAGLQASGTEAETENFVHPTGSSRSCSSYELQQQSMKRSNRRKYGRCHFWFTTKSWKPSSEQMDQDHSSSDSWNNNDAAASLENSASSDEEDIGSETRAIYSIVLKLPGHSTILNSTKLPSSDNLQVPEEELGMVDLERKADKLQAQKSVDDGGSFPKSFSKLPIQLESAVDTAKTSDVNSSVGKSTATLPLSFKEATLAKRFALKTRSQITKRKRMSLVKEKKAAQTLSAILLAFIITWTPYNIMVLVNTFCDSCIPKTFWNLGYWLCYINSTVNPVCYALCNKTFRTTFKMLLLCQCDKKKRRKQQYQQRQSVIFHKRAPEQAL
Alpha-2A adrenergic receptor (Homo sapiens), sequence (P08913 whole entry): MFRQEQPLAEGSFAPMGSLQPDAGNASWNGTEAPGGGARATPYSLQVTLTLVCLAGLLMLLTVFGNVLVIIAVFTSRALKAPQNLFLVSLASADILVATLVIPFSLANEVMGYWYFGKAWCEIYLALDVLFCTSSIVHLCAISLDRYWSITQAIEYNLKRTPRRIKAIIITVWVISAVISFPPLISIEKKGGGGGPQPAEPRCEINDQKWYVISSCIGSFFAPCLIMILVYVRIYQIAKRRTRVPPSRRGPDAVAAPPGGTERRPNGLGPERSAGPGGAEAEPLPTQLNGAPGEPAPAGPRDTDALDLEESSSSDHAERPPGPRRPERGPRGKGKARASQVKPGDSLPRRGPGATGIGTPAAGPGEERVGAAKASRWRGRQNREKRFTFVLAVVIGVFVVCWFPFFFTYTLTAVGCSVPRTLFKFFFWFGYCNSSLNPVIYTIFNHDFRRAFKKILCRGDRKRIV
Beta-3 adrenergic receptor (Homo sapiens), sequence (P13945 whole entry, looked up): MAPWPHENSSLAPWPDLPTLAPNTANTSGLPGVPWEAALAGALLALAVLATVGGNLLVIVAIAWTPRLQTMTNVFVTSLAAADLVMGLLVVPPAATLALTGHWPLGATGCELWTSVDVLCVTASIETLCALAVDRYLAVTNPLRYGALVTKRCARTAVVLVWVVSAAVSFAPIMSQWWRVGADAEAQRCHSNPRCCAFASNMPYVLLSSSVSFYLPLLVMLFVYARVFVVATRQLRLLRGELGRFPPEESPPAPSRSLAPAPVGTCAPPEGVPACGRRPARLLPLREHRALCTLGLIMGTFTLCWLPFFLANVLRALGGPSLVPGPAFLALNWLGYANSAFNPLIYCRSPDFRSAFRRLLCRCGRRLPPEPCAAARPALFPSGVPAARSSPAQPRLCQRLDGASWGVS
Cholecystokinin receptor type A (Homo sapiens), sequence (P32238 whole entry): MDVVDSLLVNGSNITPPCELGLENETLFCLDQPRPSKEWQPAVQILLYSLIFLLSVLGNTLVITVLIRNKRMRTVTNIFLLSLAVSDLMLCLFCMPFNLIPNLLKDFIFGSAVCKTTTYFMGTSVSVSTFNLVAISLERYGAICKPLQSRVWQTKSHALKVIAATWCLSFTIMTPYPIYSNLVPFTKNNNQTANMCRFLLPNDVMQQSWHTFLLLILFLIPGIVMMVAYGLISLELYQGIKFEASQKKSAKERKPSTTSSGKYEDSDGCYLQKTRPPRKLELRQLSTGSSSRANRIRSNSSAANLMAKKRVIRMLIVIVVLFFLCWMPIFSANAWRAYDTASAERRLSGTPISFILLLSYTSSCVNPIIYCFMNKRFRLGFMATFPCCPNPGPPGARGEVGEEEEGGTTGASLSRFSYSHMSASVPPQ
5-hydroxytryptamine receptor 2C (Homo sapiens), sequence (P28335 whole entry): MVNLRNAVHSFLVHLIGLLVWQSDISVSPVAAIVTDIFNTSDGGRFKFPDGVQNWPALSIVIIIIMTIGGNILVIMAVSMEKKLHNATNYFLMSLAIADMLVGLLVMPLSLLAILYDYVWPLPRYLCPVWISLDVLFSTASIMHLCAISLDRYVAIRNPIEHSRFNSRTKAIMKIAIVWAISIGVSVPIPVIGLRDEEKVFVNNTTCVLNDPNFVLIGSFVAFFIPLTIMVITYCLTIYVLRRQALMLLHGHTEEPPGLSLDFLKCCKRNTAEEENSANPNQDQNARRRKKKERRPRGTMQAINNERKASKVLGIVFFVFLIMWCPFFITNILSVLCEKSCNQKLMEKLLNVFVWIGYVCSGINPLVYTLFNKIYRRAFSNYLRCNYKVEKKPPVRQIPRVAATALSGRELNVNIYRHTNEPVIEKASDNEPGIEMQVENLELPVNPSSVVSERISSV
Delta-type opioid receptor (Homo sapiens), sequence (P41143 whole entry): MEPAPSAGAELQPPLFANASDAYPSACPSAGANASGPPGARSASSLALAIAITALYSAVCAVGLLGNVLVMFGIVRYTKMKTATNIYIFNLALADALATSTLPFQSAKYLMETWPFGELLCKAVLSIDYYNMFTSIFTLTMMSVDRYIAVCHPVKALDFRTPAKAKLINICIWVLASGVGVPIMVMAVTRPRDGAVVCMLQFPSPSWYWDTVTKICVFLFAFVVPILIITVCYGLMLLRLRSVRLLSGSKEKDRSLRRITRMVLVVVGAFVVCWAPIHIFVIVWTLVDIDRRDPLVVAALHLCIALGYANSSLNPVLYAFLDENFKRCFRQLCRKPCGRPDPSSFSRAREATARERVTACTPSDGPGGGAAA
5-hydroxytryptamine receptor 1B (Homo sapiens), sequence (P28222 whole entry): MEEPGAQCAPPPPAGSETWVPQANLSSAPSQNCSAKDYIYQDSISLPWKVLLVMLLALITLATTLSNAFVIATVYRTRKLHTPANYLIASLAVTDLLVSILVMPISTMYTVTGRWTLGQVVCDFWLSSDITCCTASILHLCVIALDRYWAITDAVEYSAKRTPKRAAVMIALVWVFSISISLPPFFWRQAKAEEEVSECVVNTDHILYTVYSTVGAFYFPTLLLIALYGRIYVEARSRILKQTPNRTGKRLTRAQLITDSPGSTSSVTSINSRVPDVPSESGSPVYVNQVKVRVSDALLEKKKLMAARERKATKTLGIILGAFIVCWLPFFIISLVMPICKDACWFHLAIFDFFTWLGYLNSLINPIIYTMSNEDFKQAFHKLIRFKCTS

CC[C@H](CC(=O)O)n1c(=O)c2ncccc2n(Cc2cn(C)c3cc(C)cc(C)c23)c1=O [BI-1942]
86% (not active): activity at 10 µM [20]
1130 nM: Ki [1]
105% (not active): activity at 10 µM (hERG (KCNH2))
inactive: residual activity [2] 79% | residual activity [3] 127% | residual activity [4] 99% | residual activity [5] 127% | residual activity [6] 90% | residual activity [7] 129% | residual activity (Caspase-7 (Homo sapiens)) 101% | residual activity [9] 118% | residual activity [10] 106% | residual activity [11] 98% | residual activity [12] 98% | residual activity [13] 95% | residual activity [14] 101% | residual activity [15] 107% | residual activity [16] 114% | residual activity [17] 111% | residual activity [18] 112% | residual activity [19] 98% | residual activity [21] 109% | residual activity [22] 103% | residual activity [23] 124% | residual activity [24] 97% | residual activity [25] 134% | residual activity (Rattus norvegicus [26]) 97% | residual activity [27] 100% | inhibition [28] 5.01% | inhibition [29] 0.22% | inhibition [30] 1.02% | inhibition [31] 20.3% | inhibition [32] 22.2% | inhibition [33] 2.82% | inhibition [34] -4.71% | inhibition [35] -5.58% | inhibition [36] 19.6% | inhibition [37] 0.56% | inhibition [38] 13.8% | inhibition [39] 23.8% | inhibition [40] 9.09% | inhibition [41] -6.54% | inhibition (Rattus norvegicus [42]) 12.2%
active: residual activity [8] -2% | residual activity (Chymase (Homo sapiens)) -1%
